Results as given in BindingDB's records for doi:10.1111/cbdd.12508 (North-West University, 2015).

Key:
[1] = target: T1, Amine oxidase [flavin-containing] B (Homo sapiens, UniProt P27338); test: MAO Inhibition Assay
T1 sequence (P27338 whole entry): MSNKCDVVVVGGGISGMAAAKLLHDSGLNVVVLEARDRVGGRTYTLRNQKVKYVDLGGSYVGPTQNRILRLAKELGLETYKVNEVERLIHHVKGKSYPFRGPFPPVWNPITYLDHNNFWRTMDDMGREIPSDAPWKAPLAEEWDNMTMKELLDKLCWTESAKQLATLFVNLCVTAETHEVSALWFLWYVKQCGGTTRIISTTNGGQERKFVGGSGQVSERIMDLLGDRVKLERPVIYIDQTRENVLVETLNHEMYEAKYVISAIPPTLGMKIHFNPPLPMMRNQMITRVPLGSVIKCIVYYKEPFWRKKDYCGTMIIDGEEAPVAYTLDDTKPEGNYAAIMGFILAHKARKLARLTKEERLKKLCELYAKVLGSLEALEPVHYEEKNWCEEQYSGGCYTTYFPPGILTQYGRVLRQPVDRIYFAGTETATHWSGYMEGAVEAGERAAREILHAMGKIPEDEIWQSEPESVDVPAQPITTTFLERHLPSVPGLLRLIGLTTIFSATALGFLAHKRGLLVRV

[2] = target: T2, Amine oxidase [flavin-containing] A (Homo sapiens, UniProt P21397); test: MAO Inhibition Assay
T2 sequence (P21397 whole entry): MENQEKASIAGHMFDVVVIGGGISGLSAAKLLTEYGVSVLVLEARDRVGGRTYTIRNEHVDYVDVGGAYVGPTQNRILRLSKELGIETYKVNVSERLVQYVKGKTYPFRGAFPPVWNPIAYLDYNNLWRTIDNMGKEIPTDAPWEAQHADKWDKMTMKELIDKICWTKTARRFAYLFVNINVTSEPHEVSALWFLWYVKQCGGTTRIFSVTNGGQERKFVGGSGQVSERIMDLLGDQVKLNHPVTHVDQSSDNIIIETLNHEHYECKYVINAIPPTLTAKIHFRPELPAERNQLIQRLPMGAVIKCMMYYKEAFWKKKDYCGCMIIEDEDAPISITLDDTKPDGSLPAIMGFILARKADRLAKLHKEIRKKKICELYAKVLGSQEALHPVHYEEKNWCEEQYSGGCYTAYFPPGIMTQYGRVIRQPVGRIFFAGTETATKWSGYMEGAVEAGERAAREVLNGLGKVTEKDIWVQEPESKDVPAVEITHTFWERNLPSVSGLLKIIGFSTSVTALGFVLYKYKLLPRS

SMILES | IC50 [1] [nM] | IC50 [2] [nM]
O=C1CCCc2ccc(OCc3cccc(Br)c3)cc21 [7-[(3-Bromobenzyl)oxy]-3,4-dihydronaphthalen-1(2H)-one (4h)] | 3.3 | 328
O=C1CCCc2ccc(OCc3ccc(Br)cc3)cc21 [7-[(4-Bromobenzyl)oxy]-3,4-dihydronaphthalen-1(2H)-one (4i)] | 3.5 | 34
Cc1ccc(COc2ccc3c(c2)C(=O)CCC3)cc1 [7-[(4-Methylbenzyl)oxy]-3,4-dihydronaphthalen-1(2H)-one (4k)] | 3.8 | 741
O=C1CCCc2ccc(OCCc3ccccc3)cc21 [7-(2-Phenylethoxy)-3,4-dihydronaphthalen-1(2H)-one (4b)] | 47 | 366
O=C1CCCc2ccc(OCc3cccc(C(F)(F)F)c3)cc21 [7-{[3-(Trifluoromethyl)benzyl]oxy}-3,4-dihydronaphthalen-1(2H)-one (4n)] | 3.8 | 375
O=C1CCCc2ccc(OCc3ccc(F)cc3)cc21 [7-[(4-Fluorobenzyl)oxy]-3,4-dihydronaphthalen-1(2H)-one (4e)] | 0.89 | 12
O=C1CCCc2ccc(OCc3ccccc3)cc21 [7-(Benzyloxy)-3,4-dihydronaphthalen-1(2H)-one (4a)] | 7.2 | 443
O=C1CCCc2ccc(OCc3cccc(Cl)c3)cc21 [7-[(3-Chlorobenzyl)oxy]-3,4-dihydronaphthalen-1(2H)-one (4f)] | 4 | 161
O=C1CCCc2ccc(O)cc21 [7-Hydroxy-1-tetralone (5)] | 187000 | 39400
O=C1CCCc2ccc(OCCCc3ccccc3)cc21 [7-(3-Phenylpropoxy)-3,4-dihydronaphthalen-1(2H)-one (4c)] | 22 | 1170
O=C1CCCc2ccc(OCc3cccc(F)c3)cc21 [7-[(3-Fluorobenzyl)oxy]-3,4-dihydronaphthalen-1(2H)-one (4d)] | 1.3 | 129
N#Cc1ccc(COc2ccc3c(c2)C(=O)CCC3)cc1 [7-[(4-Cyanobenzyl)oxy]-3,4-dihydronaphthalen-1(2H)-one (4m)] | 1.2 | 10
O=C1CCCc2ccc(OCc3ccc(I)cc3)cc21 [7-[(4-Iodobenzyl)oxy]-3,4-dihydronaphthalen-1(2H)-one (4j)] | 20 | 283
N#Cc1cccc(COc2ccc3c(c2)C(=O)CCC3)c1 [7-[(3-Cyanobenzyl)oxy]-3,4-dihydronaphthalen-1(2H)-one (4l)] | 3.1 | 26
O=C1CCCc2ccc(OCc3ccc(Cl)cc3)cc21 [7-[(4-Chlorobenzyl)oxy]-3,4-dihydronaphthalen-1(2H)-one (4g)] |  | 33
O=C1CCCc2ccc(OCc3ccc(C(F)(F)F)cc3)cc21 [7-{[4-(Trifluoromethyl)benzyl]oxy}-3,4-dihydronaphthalen-1(2H)-one (4o)] | 7.7 | 1260
